Assay results: patent US6737383B1, “Herbicidal oxadiazolidines” (priority 1999, dated 2004)

Legend:
velvetleaf = assay: Test B pre/postemergence velvetleaf; assay type: in vivo, Abutilon theophrasti
Summary of the method: (§1)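 Herbicidal effect was estimated by eye on a ten-point control scale after plants spent twelve to sixteen days in a greenhouse following soil or foliar treatment. Foliar sprays targeted plants at one to four leaves; all doses were formulated in a non-phytotoxic solvent with surfactant.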

blackgrass = assay: Test B pre/postemergence blackgrass; assay type: in vivo, Alopecurus myosuroides
Summary of the method: as §1

corn = assay: Test B pre/postemergence corn; assay type: in vivo, Zea mays
Summary of the method: as §1

sugar beet = assay: Test B pre/postemergence sugar beet; assay type: in vivo, Beta vulgaris
Summary of the method: as §1

pigweed = assay: Test B pre/postemergence pigweed; assay type: in vivo, Amaranthus retroflexus
Summary of the method: as §1

soybean = assay: Test B pre/postemergence soybean; assay type: in vivo, Glycine max
Summary of the method: as §1

crabgrass = assay: Test B pre/postemergence crabgrass; assay type: in vivo, Digitaria sanguinalis
Summary of the method: as §1

surinam grass = assay: Test B pre/postemergence surinam grass; assay type: in vivo, Brachiaria decumbens
Summary of the method: as §1

smallflower flatsedge = assay: Test B flood test smallflower flatsedge; assay type: in vivo, Cyperus difformis
Summary of the method: (§2)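 Plants were grown to the 2-leaf stage before treatment with test chemical, then held in a greenhouse for twelve to sixteen days. Injury was visually rated against untreated controls on a 0–10 scale, where 0 is no effect and 10 is complete control.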

giant foxtail = assay: Test B pre/postemergence giant foxtail; assay type: in vivo, Setaria faberii
Summary of the method: as §1

cocklebur = assay: Test B pre/postemergence cocklebur; assay type: in vivo, Xanthium strumarium
Summary of the method: as §1

rape = assay: Test B pre/postemergence rape; assay type: in vivo, Brassica napus
Summary of the method: as §1

wheat = assay: Test B pre/postemergence wheat; assay type: in vivo, Triticum aestivum
Summary of the method: as §1

bamyardgrass = assay: Test B flood test barnyardgrass; assay type: in vivo, Echinochloa crus-galli
Summary of the method: as §2

wild oat = assay: Test B pre/postemergence wild oat; assay type: in vivo, Avena fatua
Summary of the method: as §1

purple nutsedge = assay: Test B pre/postemergence purple nutsedge; assay type: in vivo, Cyperus rotundus
Summary of the method: as §1

bedstraw = assay: Test B pre/postemergence bedstraw; assay type: in vivo, Galium aparine; conditions: Preemergence
Summary of the method: as §1

duck salad = assay: Test B flood test duck salad; assay type: in vivo, Heteranthera limosa
Summary of the method: as §2

rice = assay: Test B flood test rice; assay type: in vivo, Oryza sativa
Summary of the method: as §2

morningglory = assay: Test B pre/postemergence morningglory; assay type: in vivo, Ipomoea hederacea
Summary of the method: as §1

[1] = Postemergence, Rate 62 g/ha, scale 0 to 10, 0 is no effect, 10 is complete control
[2] = Postemergence, Rate 125 g/ha, scale of 0 to 10 where 0 is no effect and 10 is complete control
[3] = Preemergence, Rate 62 g/ha, scale of 0 to 10 where 0 is no effect and 10 is complete control
[4] = Preemergence, Rate 125 g/ha, scale of 0 to 10 where 0 is no effect and 10 is complete control
[5] = Preemergence, Rate 250 g/ha, scale 0 to 10 (0 no effect, 10 complete control)
[6] = Preemergence, Rate 500 g/ha, scale of 0 to 10 where 0 is no effect and 10 is complete control
[7] = Rate 500 g/ha, Postemergence, scale 0 to 10, 0 is no effect, 10 is complete control
[8] = Postemergence, Rate 250 g/ha, scale of 0 to 10, 0 is no effect, 10 is complete control
[9] = Rate 62 g/ha, flood test species, Pre-emergence, visual evaluation after twelve to sixteen days
[10] = Rate 125 g/ha, under heading Pre-emergence, flood test species, visual evaluation after twelve to sixteen days
[11] = Rate 250 g/ha, Pre-emergence (flood test species), scale 0 to 10, 0 is no effect, 10 is complete control
[12] = Rate 500 g/ha, Pre-emergence section of Table B, 0 to 10 scale (0 no effect, 10 complete control)

In the case of `C#CC=CC(C)(C)n1c(=O)on(C(=O)N(c2ccccc2)C(C)C)c1=O` [Compound 655], the “Plant response rating, Velvetleaf” value (velvetleaf; [1]) is reported as 0, the “Velvetleaf plant response rating” value (velvetleaf; [2]) is reported as 0 and the “Velvetleaf plant response rating” value (velvetleaf; [3]) is reported as 0. The “Velvetleaf plant response rating” value (velvetleaf; [4]) was 0, the “Plant response rating, Velvetleaf” value (velvetleaf; [5]) was 0 and the “Plant response rating, Velvetleaf” value (velvetleaf; [6]) was 0. For the same compound, the “Velvetleaf plant response rating” value (velvetleaf; [7]) was 0, the “Plant response rating, Blackgrass” value (blackgrass; [1]) was 0 and the “Blackgrass plant response rating” value (blackgrass; [2]) was 0. The “Blackgrass plant response rating” value (blackgrass; [8]) was 0, the “Blackgrass plant response rating” value (blackgrass; [3]) was 0 and the “Blackgrass plant response rating” value (blackgrass; [4]) was 0. For the same compound, the “Plant response rating, Blackgrass” value (blackgrass; [5]) was 2, the “Plant response rating, Blackgrass” value (blackgrass; [6]) was 3 and the “Blackgrass plant response rating” value (blackgrass; [7]) was 3. The “Plant response rating, Corn” value (corn; [1]) was 0, the “Corn plant response rating” value (corn; [2]) was 0 and the “Corn plant response rating” value (corn; [8]) was 0. The “Corn plant response rating” value (corn; [3]) was 0, the “Corn plant response rating” value (corn; [4]) was 0 and the “Plant response rating, Corn” value (corn; [5]) was 0. The “Plant response rating, Corn” value (corn; [6]) was 0, the “Corn plant response rating” value (corn; [7]) was 0 and the “Plant response rating, Sugarbeets” value (sugar beet; [1]) was 0. The “Sugarbeets plant response rating” value (sugar beet; [2]) was 0, the “Sugarbeets plant response rating” value (sugar beet; [3]) was 0 and the “Sugarbeets plant response rating” value (sugar beet; [4]) was 0. The “Plant response rating, Sugarbeets” value (sugar beet; [5]) was 0, the “Plant response rating, Sugarbeets” value (sugar beet; [6]) was 0 and the “Sugarbeets plant response rating” value (sugar beet; [7]) was 2. The “Plant response rating, Redroot pigweed” value (pigweed; [1]) was 1, the “Redroot pigweed plant response rating” value (pigweed; [2]) was 2 and the “Redroot pigweed plant response rating” value (pigweed; [3]) was 0. The “Redroot pigweed plant response rating” value (pigweed; [4]) was 2, the “Plant response rating, Redroot pigweed” value (pigweed; [5]) was 2 and the “Plant response rating, Redroot pigweed” value (pigweed; [6]) was 4. The “Redroot pigweed plant response rating” value (pigweed; [7]) was 7, the “Plant response rating, Soybean” value (soybean; [1]) was 2 and the “Soybean plant response rating” value (soybean; [2]) was 2. For the same compound, the “Soybean plant response rating” value (soybean; [3]) was 0, the “Soybean plant response rating” value (soybean; [4]) was 0 and the “Plant response rating, Soybean” value (soybean; [5]) was 0. The “Plant response rating, Soybean” value (soybean; [6]) was 0, the “Soybean plant response rating” value (soybean; [7]) was 4 and the “Plant response rating, Crabgrass” value (crabgrass; [1]) was 1. The “Crabgrass plant response rating” value (crabgrass; [2]) was 8, the “Crabgrass plant response rating” value (crabgrass; [8]) was 8 and the “Crabgrass plant response rating” value (crabgrass; [4]) was 8. For the same compound, the “Plant response rating, Crabgrass” value (crabgrass; [5]) was 8, the “Plant response rating, Crabgrass” value (crabgrass; [6]) was 9 and the “Crabgrass plant response rating” value (crabgrass; [7]) was 9. The “Plant response rating, B. signalgrass” value (surinam grass; [1]) was 0, the “Plant response rating, B. signalgrass” value (surinam grass; [2]) was 0 and the “B. signalgrass plant response rating” value (surinam grass; [8]) was 2. The “B. signalgrass plant response rating” value (surinam grass; [3]) was 0, the “B. signalgrass plant response rating” value (surinam grass; [4]) was 0 and the “Plant response rating, B. signalgrass” value (surinam grass; [5]) was 0. For the same compound, the “Plant response rating, B. signalgrass” value (surinam grass; [6]) was 0, the “B. signalgrass plant response rating” value (surinam grass; [7]) was 2 and the “Plant response rating, S. Flatsedge (0 to 10 scale, 0 is no effect, 10 is complete control)” value (smallflower flatsedge; [9]) was 0. The “S. Flatsedge plant response rating (0 to 10 scale, 0 is no effect, 10 is complete control)” value (smallflower flatsedge; [10]) was 0, the “S. Flatsedge plant response rating” value (smallflower flatsedge; [11]) was 0 and the “S. Flatsedge plant response rating” value (smallflower flatsedge; [12]) was 0. The “Plant response rating, Giant foxtail” value (giant foxtail; [1]) was 1, the “Giant foxtail plant response rating” value (giant foxtail; [2]) was 7 and the “Giant foxtail plant response rating” value (giant foxtail; [3]) was 3. For the same compound, the “Giant foxtail plant response rating” value (giant foxtail; [4]) was 9, the “Plant response rating, Giant foxtail” value (giant foxtail; [5]) was 9 and the “Plant response rating, Giant foxtail” value (giant foxtail; [6]) was 9. For the same compound, the “Giant foxtail plant response rating” value (giant foxtail; [7]) was 9, the “Plant response rating, Cocklebur” value (cocklebur; [1]) was 0 and the “Cocklebur plant response rating” value (cocklebur; [2]) was 0. The “Cocklebur plant response rating” value (cocklebur; [8]) was 0, the “Cocklebur plant response rating” value (cocklebur; [3]) was 0 and the “Cocklebur plant response rating” value (cocklebur; [4]) was 0. For the same compound, the “Plant response rating, Cocklebur” value (cocklebur; [5]) was 0, the “Plant response rating, Cocklebur” value (cocklebur; [6]) was 0 and the “Cocklebur plant response rating” value (cocklebur; [7]) was 0. For the same compound, the “Plant response rating, Rape” value (rape; [1]) was 0, the “Rape plant response rating” value (rape; [2]) was 2 and the “Rape plant response rating” value (rape; [3]) was 0. The “Rape plant response rating” value (rape; [4]) was 0, the “Plant response rating, Rape” value (rape; [5]) was 0 and the “Plant response rating, Rape” value (rape; [6]) was 0. For the same compound, the “Rape plant response rating” value (rape; [7]) was 3, the “Plant response rating, Wheat” value (wheat; [1]) was 0 and the “Wheat plant response rating” value (wheat; [2]) was 0. The “Wheat plant response rating” value (wheat; [3]) was 0, the “Wheat plant response rating” value (wheat; [4]) was 0 and the “Plant response rating, Wheat” value (wheat; [5]) was 0. For the same compound, the “Plant response rating, Wheat” value (wheat; [6]) was 0, the “Wheat plant response rating” value (wheat; [7]) was 0 and the “Plant response rating, Barnyardgrass (0 to 10 scale, 0 is no effect, 10 is complete control)” value (bamyardgrass; [9]) was 0. For the same compound, the “Barnyardgrass plant response rating (0 to 10 scale, 0 is no effect, 10 is complete control)” value (bamyardgrass; [10]) was 0, the “Barnyardgrass plant response rating” value (bamyardgrass; [11]) was 0 and the “Barnyardgrass plant response rating” value (bamyardgrass; [12]) was 0. The “Plant response rating, Wild oats” value (wild oat; [1]) was 0, the “Wild oats plant response rating” value (wild oat; [2]) was 0 and the “Wild oats plant response rating” value (wild oat; [3]) was 0. For the same compound, the “Wild oats plant response rating” value (wild oat; [4]) was 0, the “Plant response rating, Wild oats” value (wild oat; [5]) was 0 and the “Plant response rating, Wild oats” value (wild oat; [6]) was 0. For the same compound, the “Wild oats plant response rating” value (wild oat; [7]) was 1, the “Plant response rating, Nutsedge” value (purple nutsedge; [1]) was 0 and the “Nutsedge plant response rating” value (purple nutsedge; [2]) was 0. For the same compound, the “Nutsedge plant response rating” value (purple nutsedge; [3]) was 0, the “Nutsedge plant response rating” value (purple nutsedge; [4]) was 0 and the “Plant response rating, Nutsedge” value (purple nutsedge; [5]) was 0. The “Plant response rating, Nutsedge” value (purple nutsedge; [6]) was 0, the “Bedstraw plant response rating” value (bedstraw; Rate 62 g/ha, scale of 0 to 10 where 0 is no effect and 10 is complete control) was 0 and the “Bedstraw plant response rating” value (bedstraw; Rate 125 g/ha, scale of 0 to 10 where 0 is no effect and 10 is complete control) was 0. For the same compound, the “Plant response rating, Bedstraw” value (bedstraw; Rate 250 g/ha, scale 0 to 10 (0 no effect, 10 complete control)) was 0, the “Plant response rating, Bedstraw” value (bedstraw; Rate 500 g/ha, scale of 0 to 10 where 0 is no effect and 10 is complete control) was 0 and the “Plant response rating, Ducksalad (0 to 10 scale, 0 is no effect, 10 is complete control)” value (duck salad; [9]) was 0. For the same compound, the “Ducksalad plant response rating (0 to 10 scale, 0 is no effect, 10 is complete control)” value (duck salad; [10]) was 0, the “Ducksalad plant response rating” value (duck salad; [11]) was 0 and the “Ducksalad plant response rating” value (duck salad; [12]) was 0. For the same compound, the “Plant response rating, Rice (0 to 10 scale, 0 is no effect, 10 is complete control)” value (rice; [9]) was 0, the “Rice plant response rating (0 to 10 scale, 0 is no effect, 10 is complete control)” value (rice; [10]) was 0 and the “Rice plant response rating” value (rice; [11]) was 0. For the same compound, the “Rice plant response rating” value (rice; [12]) was 0, the “Plant response rating, Morningglory” value (morningglory; [1]) was 9 and the “Morningglory plant response rating” value (morningglory; [8]) was 9. The “Morningglory plant response rating” value (morningglory; [3]) was 0, the “Morningglory plant response rating” value (morningglory; [4]) was 0 and the “Plant response rating, Morningglory” value (morningglory; [5]) was 0. The “Plant response rating, Morningglory” value (morningglory; [6]) was 0.
